Assay results as given in patent US20250214990A1, “DIACYLGLYCEROL KINASE (DGK) ALPHA INHIBITORS AND USES THEREOF” (Insilico Medicine IP Limited, priority 2022, published 2025).

What was measured:
[1] = tested on: Human Pan T cells; assay: IL-2 Release Detection Assay; format: cell-based; conditions: T-cell; for EC50: IL-2 in supernatant by ELISA, anti-CD3 pre-coated plate, 24 hours; for maximal fold induction: Top activation/DMSO control; for activity at 0.1 µM: curve value at 100 nM/DMSO control*100%, read-out: Activation % at 100 nM
Method: Isolate Human Pan T cells from PBMC according to T cell isolation kit (Stemcell, 17951). The suspend T cell in RPMI 1640 medium containing 10% FBS, 1% PS and 55 µM β-Mer at a density of 3*10^6 cells/well/3 ml are seeded into 6 well plate, recovered overnight at 37° C.&[…]. Harvest overnight recovered T cells are suspended in fresh RPMI1640 medium containing 10% FBS, 1% PS and 55 μM f-Mer, seeded 1*10^5/well/200 μl cells into the anti-CD3 pre-coated 96 well plate. Add dilutions of compounds into the cells and incubate at 37° C.&5% CO2 for 24 hours. IL-2 in cell supernatant was detected by ELISA Kit (R&D, DY202). Fit the compound EC50 in non-linear regression equation: Y=Bottom+(Top−Bottom)/(1+10^((Log EC50−X)*HillSlope)), X=compound concentration, Y=Activation %. Top and Bottom: Plateaus in same units as Y. Log EC50: same log units as X. Activation fold: Top activation/DMSO control. Activation % at 100 nM: Activation of non-linear regression equation curve at the concentration of 100 nM/DMSO control*100%.

[2] = molecular target: T1, DGKA (Homo sapiens, UniProt P23743); assay: DGKA Inhibition ADP-Glo Assay; format: biochemical; conditions: 40 μM ATP
T1 construct: purchased SignalChem D21-10BG
Method: The DGKA inhibition reactions were performed using ADP-Glo assay. The reactions were carried out in 50 mM HEPES, 100 mM NaCl, 10 mM MgCl2, 1 mM CaCl2, 0.005% TritonX-100 and 1 mM DTT as working solution (pH=7.5). 30 nL DMSO solution of each test compound (Top concentration […] with 10 point, 4-fold dilution series for each compound) were transferred to 384 well plate by Echo and 5 μL DGKA (SignalChem, D21-10BG) enzyme working solution at 2× final reaction concentration was added to each well. After incubated at 25° C. for 15 minutes, 5 μL substrate working solution contain 40 μM ATP (Promega, V915B) and 200 µM DLG (SignalChem, D430-59) were added to initiate reaction. After enzymatic reaction at 25° C. for 60 min, ADP Glo assay reagents (Promega, V9102) were added and luminescence was recorded using an EnVision following the instruction of manual. […] The IC50 value was calculated via a regression analysis of the inhibition rate.

[3] = Rat PK profile after oral administration; format: in vivo, Male SD rats; conditions: for AUC(0-inf) / AUC(0-t) / Cmax / half-life: male, SD, plasma, rat, oral, 5 mg/kg
Method: Species and strain: Male SD rats of SPF. Source: Sino-British SIPPR/BK Lab Animal Ltd, Shanghai. 3 rats were orally gavage administrated with given compounds (Formulation: 5% DMSO+10% Solutol+85% Saline). The blood samples were taken via submandibular vein or other suitable vein at timepoints 0.25 h, 0.5 h, 1 h, 2 h, 4 h, 6 h, 8 h and 24 h after oral gavage administration, 0.15 mL/time point. Blood samples were placed in tubes containing K2-EDTA and stored on ice until centrifuged. The blood samples were centrifuged at 6800 g for 6 minutes at 2-8° C. within 1 h after collected and stored frozen at approximately −80° C. An aliquot of 30 μL plasma samples were protein precipitated with 300 μL MeOH in which contains 100 ng/mL Verapamil (IS). The mixture was vortexed for 1 min and centrifuged at 18000 g for 7 min. Transfer 300 μL supernatant to 96 well plates. An aliquot of 8 μL supernatant was injected for LC-MS/MS analysis by LC-MS/MS-12 (TQ5500) instrument. The analytical results were confirmed using quality control samples for intra-assay variation. The accuracy of >66.7% of the quality control samples should be between 80-120% of the known value(s). Standard set of parameters including Area Under the Curve (AUC(0-t) and AUC(0-∞)), elimination half-live (T1/2), maximum plasma concentration (Cmax), will be calculated using noncompartmental analysis modules in FDA certified pharmacokinetic program Phoenix WinNonlin 7.0 (Pharsight, USA).

[4] = Mouse PK profile after oral administration; format: in vivo, Male CD-1 mice; conditions: for AUC(0-inf) / AUC(0-t) / Cmax / half-life: male, CD-1, plasma, mouse, oral, 5 mg/kg
Method: Species and strain: Male CD-1 mice of SPF. Source: Sino-British SIPPR/BK Lab Animal Ltd, Shanghai. 3 mice were orally gavage administrated with given compounds (Formulation: 5% DMSO+10% Solutol+85% Saline). The blood samples were taken via cephalic vein at timepoints 0.25 h, 0.5 h, 1 h, 2 h, 4 h, 6 h, 8 h and 24 h after oral gavage administration, 30 μL/time point. Blood samples were placed in tubes containing K2-EDTA and stored on ice until centrifuged. The blood samples were centrifuged at 6800 g for 6 minutes at 2-8° C. within 1 h after collected and stored frozen at approximately −80° C. An aliquot of 10 μL plasma samples were protein precipitated with 200 μL MeOH in which contains 10 ng/mL Verapamil (IS). The mixture was vortexed for 1 min and centrifuged at 18000 g for 7 min. Transfer 180 μL supernatant to 96 well plates. An aliquot of 6 μL supernatant was injected for LC-MS/MS analysis by LC-MS/MS-04 (API4000) instrument. The analytical results were confirmed using quality control samples for intra-assay variation. The accuracy of >66.7% of the quality control samples should be between 80-120% of the known value(s). Standard set of parameters including Area Under the Curve (AUC(0-t) and AUC(0-∞)), elimination half-live (T½), maximum plasma concentration (Cmax), will be calculated using noncompartmental analysis modules in FDA certified pharmacokinetic program Phoenix WinNonlin 7.0 (Pharsight, USA).

T1 sequence (P23743 whole entry): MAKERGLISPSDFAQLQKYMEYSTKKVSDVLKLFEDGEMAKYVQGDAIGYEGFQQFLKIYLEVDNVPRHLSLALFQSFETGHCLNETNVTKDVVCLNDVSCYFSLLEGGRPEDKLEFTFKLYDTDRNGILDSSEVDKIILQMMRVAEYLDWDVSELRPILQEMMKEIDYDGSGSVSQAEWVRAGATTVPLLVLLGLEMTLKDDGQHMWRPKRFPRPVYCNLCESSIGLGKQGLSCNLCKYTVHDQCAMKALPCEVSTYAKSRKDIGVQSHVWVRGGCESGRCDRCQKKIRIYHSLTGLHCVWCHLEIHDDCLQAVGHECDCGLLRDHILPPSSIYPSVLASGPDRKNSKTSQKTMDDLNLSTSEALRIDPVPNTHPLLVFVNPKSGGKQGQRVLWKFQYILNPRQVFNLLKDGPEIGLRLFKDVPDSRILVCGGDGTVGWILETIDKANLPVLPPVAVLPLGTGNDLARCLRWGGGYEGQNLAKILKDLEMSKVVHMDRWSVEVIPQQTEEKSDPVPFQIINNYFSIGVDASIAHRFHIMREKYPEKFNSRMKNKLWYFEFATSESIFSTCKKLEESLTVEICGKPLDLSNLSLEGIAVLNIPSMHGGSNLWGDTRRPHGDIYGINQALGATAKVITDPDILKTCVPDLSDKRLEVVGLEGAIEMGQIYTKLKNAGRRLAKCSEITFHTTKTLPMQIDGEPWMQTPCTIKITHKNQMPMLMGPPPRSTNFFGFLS

Row | Compound | EC50 [1] | IC50 [2] | AUC(0-inf) [3] | AUC(0-t) [3] | Cmax [3] | half-life [3] | T1/2, Cmax and AUC compared with compound ([3]; rat PK evaluation, comparison in words) | AUC(0-inf) [4] | AUC(0-t) [4] | Cmax [4] | half-life [4] | T1/2, Cmax and AUC compared with compound ([4]; mouse PK evaluation, comparison in words) | maximal fold induction [1] | activity at 0.1 µM [1]
1 | Cn1c(=O)cc(N2CCOCc3c(C#CC4(C(F)(F)F)CC4)cccc32)c2cc(C#N)ccc21 [Example 4, 1-methyl-2-oxo-4-(6-((1-(trifluoromethyl)cyclopropyl)ethynyl)-2,3-dihydrobenzo[e][1,4]oxazepin-1(5H)-yl)-1,2-dihydroquinoline-6-carbonitrile] | 0.479 µM | 0.001 to 0.01 µM | – | – | – | – | – | – | – | – | – | – | 10 | 313%
2 | Cn1c(=O)nc(N2CCOCc3c(C#CC4(C(F)(F)F)CC4)cccc32)c2cc(C#N)c(OC3CCOC3)cc21 (stereo not drawn) [Example 12, 1-methyl-2-oxo-7-((tetrahydrofuran-3-yl)oxy)-4-(6-((1-(trifluoromethyl)cyclopropyl)ethynyl)-2,3-dihydrobenzo[e][1,4]oxazepin-1(5H)-yl)-1,2-dihydroquinazoline-6-carbonitrile] | 1.08 µM | < 0.001 µM | – | – | – | – | – | 7.87 µg·h/mL | 7.74 µg·h/mL | 1.69 µg/mL | 1.03 h | – | 14.2 | 311%
3 | Cn1c(=O)nc(N2CCOCc3c(C#CC4(C(F)(F)F)CC4)cccc32)c2cc(Cl)ccc21 [Example 5, 6-chloro-1-methyl-4-(6-((1-(trifluoromethyl)cyclopropyl)ethynyl)-2,3-dihydrobenzo[e][1,4]oxazepin-1(5H)-yl)quinazolin-2(1H)-one] | 0.444 µM | < 0.001 µM | 3.76 µg·h/mL | 3.47 µg·h/mL | 0.292 µg/mL | 6.32 h | – | 7.11 µg·h/mL | 6.66 µg·h/mL | 0.985 µg/mL | 2.03 h | – | 7.7 | 395%
4 | Cn1c(=O)nc(N2CCOCc3c(C#CC4(C(F)(F)F)CC4)cccc32)c2cc(Cl)c(OC3CCOC3)cc21 (stereo not drawn) [Example 11, 6-chloro-1-methyl-7-((tetrahydrofuran-3-yl)oxy)-4-(6-((1-(trifluoromethyl)cyclopropyl)ethynyl)-2,3-dihydrobenzo[e][1,4]oxazepin-1(5H)-yl)quinazolin-2(1H)-one] | 0.335 µM | < 0.001 µM | – | – | – | – | – | – | – | – | – | – | 8.6 | 324%
5 | Cn1c(=O)c(C#N)c(N2CCOCc3c(C#CC4(C(F)(F)F)CC4)cccc32)c2cc(F)ccc21 [Example 10, 6-fluoro-1-methyl-2-oxo-4-(6-((1-(trifluoromethyl)cyclopropyl)ethynyl)-2,3-dihydrobenzo[e][1,4]oxazepin-1(5H)-yl)-1,2-dihydroquinoline-3-carbonitrile] | 2.61 µM | 0.001 to 0.01 µM | – | – | – | – | – | – | – | – | – | – | 5.8 | 95.5%
6 | Cn1c(=O)cc(N2CCOCc3c(C#CC4(C(F)(F)F)CC4)cccc32)c2cc(Cl)ccc21 [Example 3, 6-chloro-1-methyl-4-(6-((1-(trifluoromethyl)cyclopropyl)ethynyl)-2,3-dihydrobenzo[e][1,4]oxazepin-1(5H)-yl)quinolin-2(1H)-one] | 0.422 µM | 0.001 to 0.01 µM | – | – | – | – | – | – | – | – | – | – | 6.3 | 247%

More lines, main results first:

Row | EC50 [1] | IC50 [2] | AUC(0-inf) [3] | AUC(0-t) [3] | Cmax [3] | half-life [3] | T1/2, Cmax and AUC compared with compound ([3]; rat PK evaluation, comparison in words) | AUC(0-inf) [4] | AUC(0-t) [4] | Cmax [4] | half-life [4] | T1/2, Cmax and AUC compared with compound ([4]; mouse PK evaluation, comparison in words) | Compound | maximal fold induction [1] | activity at 0.1 µM [1]
7 | 1.01 µM | < 0.001 µM | – | – | – | – | – | – | – | – | – | – | COCCOc1cc2c(cc1Cl)c(N1CCOCc3c(C#CC4(C(F)(F)F)CC4)cccc31)nc(=O)n2C [Example 17, 6-chloro-7-(2-methoxyethoxy)-1-methyl-4-(6-((1-(trifluoromethyl)cyclopropyl)ethynyl)-2,3-dihydrobenzo[e][1,4]oxazepin-1(5H)-yl)quinazolin-2(1H)-one] | 10.2 | 202%
8 | 0.608 µM | < 0.001 µM | 12 µg·h/mL | 10.2 µg·h/mL | 0.724 µg/mL | 8.09 h | longer T1/2, much higher Cmax and AUC | 15.5 µg·h/mL | 15.3 µg·h/mL | 2.23 µg/mL | 3.28 h | longer T1/2, much higher Cmax and AUC | Cn1c(=O)nc(N2CCOCc3c(C#CC4CC4)cccc32)c2cc(Cl)c(OCCO)cc21 [Example 41, 6-chloro-4-(6-(cyclopropylethynyl)-2,3-dihydrobenzo[e][1,4]oxazepin-1(5H)-yl)-7-(2-hydroxyethoxy)-1-methylquinazolin-2(1H)-one] | 26.3 | 510%
9 | 0.243 µM | < 0.001 µM | – | – | – | – | – | – | – | – | – | – | Cn1c(=O)nc(N2CCOCc3c(C#CC4(C(F)(F)F)CC4)cccc32)c2cc(Cl)c(OC3CCOCC3)cc21 [Example 25, 6-chloro-1-methyl-7-((tetrahydro-2H-pyran-4-yl)oxy)-4-(6-((1-(trifluoromethyl)cyclopropyl)ethynyl)-2,3-dihydrobenzo[e][1,4]oxazepin-1(5H)-yl)quinazolin-2(1H)-one] | 5.4 | 275%
10 | 0.714 µM | < 0.001 µM | – | – | – | – | – | – | – | – | – | – | Cn1c(=O)nc(N2CCOCc3c(C#CC4(C(F)(F)F)CC4)cccc32)c2cc(C#N)c(OCCN)cc21 [Example 33, 7-(2-aminoethoxy)-1-methyl-2-oxo-4-(6-((1-(trifluoromethyl)cyclopropyl)ethynyl)-2,3-dihydrobenzo[e][1,4]oxazepin-1(5H)-yl)-1,2-dihydroquinazoline-6-carbonitrile] | 38.4 | 631%
11 | 0.702 µM | < 0.001 µM | – | – | – | – | – | – | – | – | – | – | Cn1c(=O)nc(N2CCOCc3c(C#CC4(C(F)(F)F)CC4)cccc32)c2cc(Cl)c(OCCN)cc21 [Example 32, 7-(2-aminoethoxy)-6-chloro-1-methyl-4-(6-((1-(trifluoromethyl)cyclopropyl)ethynyl)-2,3-dihydrobenzo[e][1,4]oxazepin-1(5H)-yl)quinazolin-2(1H)-one] | 33.9 | 540%
